Laboratory results: patent US8680058B2, “Selectively targeted antimicrobial peptides and the use thereof” (priority 2006, dated 2014)
Where two headings read alike, the source gives them in different places. No end group written: not given here.

What was measured:
S. gordonii = format: cell-based, S. gordonii Challis (DL1)
Protocol: (§1) 1.3 Determination of antimicrobial activity. The general antimicrobial activity of peptides against planktonic bacteria was determined by a MIC assay in TH broth (all oral streptococci) (Qi et al., 2005).
(§2) S. mutans, S. gordonii Challis (DL1), and S. sanguinis NY101 strains were grown in Todd Hewitt (TH, Fisher) broth medium at 37° C. under anaerobic conditions (80% N2, 10% CO2, and 10% H2). S. mutans strains UA159 (Ajdic et al., 2002), ATCC 25175, and T8 (Rogers, 1975), are wild-type clinical isolates, while comD is a knockout mutant that was constructed previously from the wild-type UA140 background (Qi et al., 2005). Luciferase expressing S. mutans strain JM11 was constructed from UA140 as described (Merritt et al., 2005). Exponentially growing bacterial cells were diluted to ˜1×10^5 cfu/mL in TH and placed into 96-well plates (Fisher). Peptides were then serially diluted and added to the bacteria.

S. mutans = format: cell-based, Streptococcus mutans
Protocol: as §1, §2

S. mutans UA159 and comD = experiment: Binding of fluorescently labeled peptides to S. mutans (fluorescence microscopy); parameters: species or system Streptococcus mutans; details: fluorescently labeled peptide
Source text: To determine whether there was a region within the CSPC16 sequence that was responsible for S. mutans-specific binding, we synthesized a series of fluorescently labeled CSPC16 fragments, and analyzed their ability to bind to S. mutans. The following strategies were utilized in dissecting the CSPC16 sequence (Table 2): First, a series of fragments were constructed by generating deletions of 3 or 4 amino acids, from the N to C terminus, across the CSPC16 sequence (C16-1 to C16-5). Peptides lacking larger portions of the C or N termini of CSPC16 were also synthesized (C16-6 to C16-12). Additionally, peptides with Arg to […] (a positive to negative change in charge) (C16-4) or Phe to Gly substitutions (for a general decrease in hydrophobicity) (C16-3), as well as peptides representing a 4-residue Ala scan of the C16 sequence were constructed (C 16-15 to C16-18). […] These peptides include C16 (SEQ ID NO 1), C16-3 (SEQ ID NO 39), C16-4 (SEQ ID NO 40), C16-5 (SEQ ID NO 41), C16-6 (SEQ ID NO 42), C16-11 (SEQ ID NO 47), C16-12 (SEQ ID NO 5), C16-16 (SEQ ID NO 51), C16-17 (SEQ ID NO 52), and C16-18 (SEQ ID NO 53).
1.2 Fluorescent labeling of peptides and fluorescence microscopy. Aliquots of CSPC16 (SEQ ID NO 2), CSP-fragment peptides (Table 2), and C16G2 (SEQ ID NO 4) were labeled with carboxyfluorescein (Sigma) as described previously (Eckert et al., 2006). After peptide cleavage but prior to the bacterial labeling assay, fluorescence intensity per μM peptide was checked fluorimetrically (λex=488 nm, λem=520 nm VersaFluor, BioRad) and found to be relatively similar (data not shown). To evaluate the level of peptide binding to bacteria, streptococci from an overnight culture (OD600 of 0.7-1.0) were washed with phosphate buffered saline (1×PBS), diluted 1:2 into 1×PBS, and exposed to peptide (16 μM) for 5 min at 25° C. After incubation with peptide, unbound agent was removed from the bacteria by three cycles of centrifugation (5 min, 16,000×g) and resuspension in 1×PBS. Labeling of oral streptococci was evaluated using brightfield and fluorescence microscopy (Nikon E400) at a 40× magnification. The digital images utilized for the semi-quantitative binding assessment were acquired with the factory-supplied software (SPOT, Diagnostics).

S. sanguinis = format: cell-based, S. sanguinis NY101
Protocol: as §1, §2

S. gordonii biofilms = experiment: Single-species biofilm regrowth after peptide exposure, S. gordonii; format: cell-based; details: 25 μM peptide, 1 min exposure
Protocol: 1.5 Examination of antimicrobial activity against single-species biofilms. To initiate biofilm formation, ˜1×10^7 bacteria per well (from overnight cultures) were seeded in TH medium (100 μL) to a 96-well flat-bottom plate. For all streptococci except S. mutans, the medium was supplemented with 0.5% (w/v) mannose and glucose. S. mutans UA159 biofilms were grown with 0.5% (w/v) sucrose. Plates were then centrifuged briefly to pellet the cells, and bacteria were incubated for 3-4 hours at 37° C. for biofilm formation. After incubation, the supernatant was carefully removed and biofilms were treated with 25 μM peptide in 1×PBS or 1×PBS alone for 1 min. The peptide solution was then removed and 100 μL TH was added to further dilute any remaining peptide. To minimize biofilm loss, cells were briefly centrifuged after TH addition, after which the supernatants were removed and fresh medium plus appropriate sugars were returned. Cells were then incubated anaerobically at 37° C. and biofilm growth was monitored over time by measuring absorbance at OD600 with a microplate spectrophotometer (Benchmark Plus, BioRad).

TFFRLFNRSFTQALGKGGGKNLRIIRKGIHIIKKY-NH2 [Peptide C16G2]
MIC (S. gordonii): 23.5 ± 7.8 µM | difference in susceptibility between G2 and C16G2 (S. gordonii; MIC, S. gordonii): ≤ 2 fold | increase in antimicrobial activity over the parental antimicrobial peptide G2 (S. mutans; MIC, S. mutans strains): 4-5 fold | MIC (S. mutans; S. mutans 25175): 3.8 ± 0.3 µM | MIC (S. mutans; S. mutans T8): 3.7 ± 0.2 µM | MIC (S. mutans; S. mutans UA159): 3.0 ± 1.6 µM | MIC (S. mutans; S. mutans comD): 5.1 ± 2.4 µM | binding to S. mutans (in words) (S. mutans UA159 and comD): could specifically bind to S. mutans | MIC (S. sanguinis): 19.1 ± 4.0 µM | difference in susceptibility between G2 and C16G2 (S. sanguinis; MIC, S. sanguinis): ≤ 2 fold | biofilm re-growth after treatment (OD600) (S. gordonii biofilms): grew similarly to untreated biofilms
